{"source": "patent US20250241913A1", "about": "“COMBINATION THERAPIES BASED ON PD-1 INHIBITORS AND SIK3 INHIBITORS” (iOmx Therapeutics AG, priority 2022, published 2025)", "key": {"[1]": {"test_system": "MC38 tumor cells", "assay": "MC38 tumor model, subcutaneous, tumor growth, survival and flow cytometry of tumor infiltrating cells", "format": "in vivo, C57BI6/N mice", "protocol": "FIG. 3: (A) Average tumor growth kinetics and overall survival monitored for the MC38 tumor model after treatment start. Treatment regimes are indicated by indeces 1 to 4 in the figure and represent: (1) 10 ml/kg vehicle+10 mg/kg mIgG1e ctrl. (2) 10 ml/kg vehicle+10 mg/kg α-muPD-1 (3) 25 mg/kg compound E9+10 mg/kg mIgG1e ctrl. and (4) 25 mg/kg compound E9+10 mg/kg α-mu-PD-1 (B) Tumor infiltrating cytotoxic T cells (CTL), CTL to regulatory T cell ratio, tumor associated M2-macrohages (M2-TAM) and M2-like TAM were analyzed by flow cytometry.\nMC38 tumor cells were subcutaneously implanted in C57BI6/N mice, randomized at an average tumor volume of 100 mm^3 and tumor bearing mice were treated twice daily with 25 mg/kg compound E9 by oral gavage and twice weekly, intraperitoneal with 10 mg/kg anti-murine-PD-1 mAb (clone: RMP1-14) or corresponding controls."}, "[2]": {"test_system": "KLN205 tumor cells", "assay": "KLN205 lung squamous cell carcinoma model, subcutaneous, tumor growth", "format": "in vivo, DBA/2 mice", "conditions": "compared to control, E9 25 mg/kg twice daily oral, anti-murine-PD-1 mAb 10 mg/kg twice weekly i.p.", "protocol": "FIG. 4: (A) Average tumor growth kinetics and overall survival monitored for the EMT6 tumor model after treatment start. […] Treatment regimes are indicated by indeces 1 to 4 in the figure and represent: (1) 10 ml/kg vehicle+10 mg/kg mIgG1e ctrl. (2) 10 ml/kg vehicle+10 mg/kg α-mu-PD-1 (3) 12.5 mg/kg compound E9+10 mg/kg mIgG1e ctrl. and (4) 12.5 mg/kg compound E9+10 mg/kg α-mu-PD-1 (B) Average tumor growth kinetics for the KLN205 tumor model upon initiation of therapy; Treatment regimes are indicated by indeces 1 to 4 in the figure and represent: (1) 10 ml/kg vehicle+10 mg/kg mIgG1e ctrl. (2) 10 ml/kg vehicle+10 mg/kg α-mu-PD-1 (3) 25 mg/kg compound E9+10 mg/kg mIgG1e ctrl. And (4) 25 mg/kg compound E9+10 mg/kg α-mu-PD-1.\nEMT6 tumor cells were implanted into mammary fat pad in BALB/c mice and randomized at an average tumor volume of 65mm^3. KLN205 tumor cells were subcutaneously implanted in DBA/2 mice and randomized at an average tumor volume of 60 mm^3. Both animal models were treated twice daily by oral gavage with the indicated doses of compound E9 and twice weekly, intraperitoneal with 10 mg/kg anti-murine-PD-1 mAb (clone: RMP1-14) or corresponding controls."}, "[3]": {"conditions": "monotherapy, 25 mg/kg E9 twice daily by oral gavage"}}, "data": [{"smiles": "Cc1nc(Nc2ncc(C(=O)Nc3c(CF)csc3Cl)s2)cc(N2CCN(C)CC2)n1", "note": "[E9, N-(2-chloro-4-(fluoromethyl)thiophen-3-yl)-2-((2-methyl-6-(4-methylpiperazin-1-yl)pyrimidin-4-yl)amino)thiazole-5-carboxamide]", "values": [{"measurement": "CTL to Treg ratio", "setting": "[1]; flow cytometry", "result": "promotion"}, {"measurement": "cytotoxic T lymphocyte (CTL) activity", "setting": "[1]; flow cytometry", "result": "activating"}, {"measurement": "immunosuppressive myeloid cells in tumour microenvironment", "setting": "[1]; flow cytometry", "result": "reducing"}, {"measurement": "regulatory T cells (Treg) in tumour microenvironment", "setting": "[1]; flow cytometry", "result": "reducing"}, {"measurement": "anti-tumor efficacy", "setting": "[1]; [3]", "result": "highly significant anti-tumor efficacy"}, {"measurement": "survival", "setting": "[1]; [3]", "result": "prolonged survival"}, {"measurement": "Growth inhibition (TGI)", "setting": "[2]", "result": 22, "unit": "%"}]}]}
